We go through two compounds from US20250332223A1, “GHRH ANTAGONISTS FOR USE IN A METHOD OF TREATING SARCOIDOSIS” (University of Miami, priority 2019, published 2025).

The assay deals with mouse model of pulmonary sarcoidosis. Description: Mouse model of pulmonary sarcoidosis, lung inflammation grading (Example 1). The conditions noted are these: sarcoidosis mice, treated two weeks, vs saline-treated sarcoidosis group; MIA-602 5 μg/day intraperitoneal; FIGS. 1A-E. It counts as in vivo, C57B1/6 mice. As for the experimental part:
Granulomatous reaction in the mouse lung was developed as previously described (Zhang et al., Front Immunol 2019; 10: 2888).
The detail of the methodology used for confocal microscopy is discussed in Zhang et al., Front Immunol 2019; 10: 2888. To summarize, mice were killed on day 14, and the left lungs were harvested. Lungs were filled with 10% buffered formalin and fixed in formalin for at least 72 h before IHC staining. H&E staining was used to determine inflammatory pathology.
Lung inflammation was scored using the three fields with the highest infiltrate's intensity at 100× power magnification as previously described (Zhang et al., Front Immunol 2019; 10: 2888). The area of inflammation was measured and averaged for the three examined high-power fields.
A mouse model of pulmonary sarcoidosis was established in C57B1/6 mice by administering microparticles intratracheally. The tongue was pulled out with a small spatula and microparticles were inserted into the trachea using a 20 G angio-catheter tube at the time of laryngeal opening and advanced to main bronchus until reach to resistant. After tube placement, microparticles were administered: a first dose of 5×10^8 CFU of M. abscessus in 50 μL with three subsequent doses of 2×10^8 CFU of M. abscessus in 20 μL. A control group received only 20 μL PBS intratracheally. Mice receiving microparticles developed noncaseating granuloma in the lung, as observed use H&E staining and immunohistochemistry staining for CD68 macrophage marker, CD4 marker, and PD-L1.
The first sarcoidosis group received MIA-602 (5 μg/day), administered via intraperitoneal injection. The second sarcoidosis group received α-melanocyte stimulating hormone (α-MSH), the third sarcoidosis group received steroid treatment (methyl-prednisone, the current first line treatment for sarcoidosis), and the fourth group received only saline. Mice were sacrificed after two weeks, and inflammation in lung samples was graded.

Regarding `C[C@H]1C[C@@H]2[C@H]([C@@H](O)C[C@@]3(C)[C@H]2CC[C@]3(O)C(=O)COC(=O)CCC(=O)[O-])[C@@]2(C)C=CC(=O)C=C12.[Na+]` [methyl-prednisone], the “inflammation in lung samples (inflammation score)” value was “did not affect inflammation”.

Turning to “α-melanocyte stimulating hormone [a-MSH]”, the “inflammation in lung samples (inflammation score)” value was “lower inflammation scores”.
